The text below walks through data of US9073821B2, “Hydroxamic acid derivative” (priority 2010, dated 2015).

Each structure is given as a SMILES string.

For the first test, the target named is Pseudomonas aeruginosa LpxC enzyme (Pseudomonas aeruginosa (strain ATCC 15692 / DSM 22644 / CIP 104116 / JCM 14847 / LMG 12228 / 1C / PRS 101 / PAO1), UniProt P47205). Kind of test: biochemical. It counts as biochemical. The conditions noted are these: class symbols A/B/C by IC50; Table 3; read-out: Enzyme inhibitory activity (inhibitory activity on Pseudomonas aeruginosa LpxC enzyme). The procedure: Test 1: Evaluation of the Inhibitory Activity on Pseudomonas aeruginosa LpxC Enzyme
An inhibition curve was constructed for each test compound by performing the aforementioned reaction at varying concentrations of the test compound. From this inhibition curve, the concentration of the test compound at which the formation of the reaction product was suppressed by 50% was determined as the IC50 of the test compound, which was an index for the inhibitory activity on Pseudomonas aeruginosa LpxC enzyme.
In the case of `CNC(=O)[C@@](C)(C(=O)NO)N(C)C(=O)c1ccc(C#Cc2coc(C)n2)cc1` [Compound 575, (2S)-N-hydroxy-N′,2-dimethyl-2-[methyl({4-[(2-methyl-1,3-oxazol-4-yl)ethynyl]phenyl}carbonyl)amino]propanediamide], the IC50 is below 0.01 µM.

Take `CNC(=O)C(C(=O)NO)N(C)C(=O)c1ccc(C#Cc2ccc(CN3CC4(CCC4)C3)cc2)cc1` (centres unmarked) [Compound 524, 2-{[(4-{[4-(2-azaspiro[3.3]hept-2-ylmethyl)phenyl]ethynyl}phenyl)carbonyl](methyl)amino}-N-hydroxy-N′-methylpropanediamide]: the IC50 lay within 0.01 to 0.1 µM.

As to `CNC(=O)[C@@](C)(C(=O)NO)N(C)C(=O)c1ccc(C#C/C=C/C2CC2COC)cc1` (stereo partly drawn) [Compound 596, (2S)-N-hydroxy-2-[(4-{(3E)-4-[2-(methoxymethyl)cyclopropyl]but-3-en-1-yn-1-yl}benzoyl)(methyl)amino]-N′,2-dimethylpropanediamide], the IC50 is below 0.01 µM.

Staying with this test, now noted: inhibitory activity on Pseudomonas aeruginosa LpxC enzyme, class symbols A/B/C; read-out: Enzyme inhibitory activity.
In the case of `CN(C(=O)c1ccc(-c2ccccc2)cc1)C(C(=O)NO)C(=O)NCc1ncccn1` (centres unmarked) [Compound 170, 2-[(biphenyl-4-ylcarbonyl)(methyl)amino]-N-hydroxy-N′-(pyrimidin-2-ylmethyl)propanediamide], the IC50 was above 0.1 µM.

Regarding `CNC(=O)C(C(=O)NO)N(C)C(=O)c1ccc(-c2ccc(OCCCN(C)CCOC)cc2)cc1` (centres unmarked) [Compound 64, N-hydroxy-2-{[(4′-{3-[(2-methoxyethyl)(methyl)amino]propoxy}biphenyl-4-yl)carbonyl](methyl)amino}-N′-methylpropanediamide], the IC50 lay in the range of 0.01 to 0.1 µM.

For `O=C(NC(C(=O)NO)C(=O)NCC1CCCO1)c1ccc(-c2ccc(OCCO)cc2)cc1` (centres unmarked) [Compound 134, N-hydroxy-2-({[4′-(2-hydroxyethoxy)biphenyl-4-yl]carbonyl}amino)-N′-(tetrahydrofuran-2-ylmethyl)propanediamide], the IC50 is below 0.01 µM.

With `CNC(=O)C(C(=O)NO)N(C)C(=O)c1ccc(-c2ccncc2)cc1` (centres unmarked) [Compound 169, N-hydroxy-N′-methyl-2-{methyl[4-(pyridin-4-yl)benzoyl]amino}propanediamide], the IC50 fell in the range of 0.01 to 0.1 µM.

`O=C(NC(C(=O)NO)C(=O)NCC1CNCCO1)c1ccc(-c2ccc(OCCO)cc2)cc1` (centres unmarked) [Compound 162, N-hydroxy-2-({[4′-(2-hydroxyethoxy)biphenyl-4-yl]carbonyl}amino)-N′-(morpholin-2-ylmethyl)propanediamide]: the IC50 lay in the range of 0.01 to 0.1 µM.

As to `CCN(C(=O)c1ccc(C#Cc2ccc(CN3CCCOCC3)cc2)cc1)C(C(=O)NC)C(=O)NO` (centres unmarked) [Compound 336, 2-{ethyl[(4-{[4-(1,4-oxazepan-4-ylmethyl)phenyl]ethynyl}phenyl)carbonyl]amino}-N-hydroxy-N′-methylpropanediamide], the IC50 was below 0.01 µM.

In the case of `CNC(=O)C(C(=O)NO)N(C)C(=O)c1ccc(-c2ccc3c(c2)cc(C)n3C)cc1` (centres unmarked) [Compound 57, 2-{[4-(1,2-dimethyl-1H-indol-5-yl)benzoyl](methyl)amino}-N-hydroxy-N′-methylpropanediamide], the IC50 was below 0.01 µM.

Regarding `CNC(=O)C(C(=O)NO)N(C)C(=O)c1ccc(-c2c(F)c(F)c(NC)c(F)c2F)cc1` (centres unmarked) [Compound 72, N-hydroxy-N′-methyl-2-(methyl {[2′,3′,5′,6′-tetrafluoro-4′-(methylamino)biphenyl-4-yl]carbonyl}amino)propanediamide], the IC50 was below 0.01 µM.

With `CNC(=O)C(C(=O)NO)N(C)C(=O)c1ccc(-c2ccc(OCc3ccc(N4CCN(C)CC4)cc3)cc2)cc1` (centres unmarked) [Compound 90, N-hydroxy-N′-methyl-2-{methyl[(4′-{[4-(4-methylpiperazin-1-yl)benzyl]oxy}biphenyl-4-yl)carbonyl]amino}propanediamide], the IC50 was below 0.01 µM.

In the case of `CNC(=O)C(C(=O)NO)N(C)C(=O)c1ccc(-c2cc(Cl)cc(Cl)c2)cc1` (centres unmarked) [Compound 222, 2-{[(3′,5′-dichlorobiphenyl-4-yl)carbonyl](methyl)amino}-N-hydroxy-N′-methylpropanediamide], the IC50 fell in the range of 0.01 to 0.1 µM.

On to `CNC(=O)C(C(=O)NO)N(C)C(=O)c1ccc(-c2ccc(N3CC(O)C3)cc2)cc1` (centres unmarked) [Compound 244, N-hydroxy-2-[{[4′-(3-hydroxyazetidin-1-yl)biphenyl-4-yl]carbonyl}(methyl)amino]-N′-methylpropanediamide], for which the IC50 is 0.01 to 0.1 µM.

For `CNC(=O)C(C(=O)NO)N(C)C(=O)c1ccc(C#Cc2ccc(OCCN3CCCOCC3)cc2)cc1` (centres unmarked) [Compound 381, N-hydroxy-N′-methyl-2-(methyl {[4-({4-[2-(1,4-oxazepan-4-yl)ethoxy]phenyl}ethynyl)phenyl]carbonyl}amino)propanediamide], the IC50 is below 0.01 µM.

For `CNC(=O)C(C(=O)NO)N(C)C(=O)c1ccc(-c2ccc3c(c2)OC(C)(C)O3)cc1` (centres unmarked) [Compound 269, 2-{[4-(2,2-dimethyl-1,3-benzodioxol-5-yl)benzoyl](methyl)amino}-N-hydroxy-N′-methylpropanediamide], the IC50 is below 0.01 µM.

Regarding `NC(=O)C(NC(=O)c1ccc(-c2ccccc2)cc1)C(=O)NO` (centres unmarked) [Compound 111, 2-[(biphenyl-4-ylcarbonyl)amino]-N-hydroxypropanediamide], the IC50 lay in the range of 0.01 to 0.1 µM.

Take `CNC(=O)C(C(=O)NO)N(C)C(=O)c1ccc(-c2ccc(OCCCN3CCOC3=O)cc2)cc1` (centres unmarked) [Compound 71, N-hydroxy-N′-methyl-2-[methyl({4′-[3-(2-oxo-1,3-oxazolidin-3-yl)propoxy]biphenyl-4-yl}carbonyl)amino]propanediamide]: the IC50 is below 0.01 µM.

As to `CNC(=O)C(C(=O)NO)N(C)C(=O)c1ccc(-c2ccc(OCc3cccc(CN4CCOCC4)c3)cc2)cc1` (centres unmarked) [Compound 87, N-hydroxy-N′-methyl-2-{methyl[(4′-{[3-(morpholin-4-ylmethyl)benzyl]oxy}biphenyl-4-yl)carbonyl]amino}propanediamide], the IC50 was below 0.01 µM.

In the case of `CNC(=O)C(C(=O)NO)N(C)C(=O)c1ccc(-c2ccc3c(c2)COC3)cc1` (centres unmarked) [Compound 290, 2-[{[4-(1,3-dihydro-2-benzofuran-5-yl)phenyl]carbonyl}(methyl)amino]-N-hydroxy-N′-methylpropanediamide], the IC50 is below 0.01 µM.

`CNC(=O)C(C(=O)NO)N(C)C(=O)c1ccc(-c2ccc(OCC(C)C)cc2)cc1` (centres unmarked) [Compound 214, N-hydroxy-N′-methyl-2-(methyl {[4′-(2-methylpropoxy)biphenyl-4-yl]carbonyl}amino)propanediamide]: the IC50 is below 0.01 µM.

Consider `O=C(NC(C(=O)NO)C(=O)NCc1cccnc1)c1ccc(-c2ccc(OCCO)cc2)cc1` (centres unmarked) [Compound 129, N-hydroxy-2-({[4′-(2-hydroxyethoxy)biphenyl-4-yl]carbonyl}amino)-N′-(pyridin-3-ylmethyl)propanediamide], for which the IC50 is below 0.01 µM.

With `CNC(=O)C(C(=O)NO)N(C)C(=O)c1ccc(C#Cc2ccc(CN(CCO)CCO)cc2)cc1` (centres unmarked) [Compound 315, 2-[({4-[(4-{[bis(2-hydroxyethyl)amino]methyl}phenyl)ethynyl]phenyl}carbonyl)(methyl)amino]-N-hydroxy-N′-methylpropanediamide], the IC50 was below 0.01 µM.

As for `CNC(=O)C(C(=O)NO)N(C)C(=O)c1ccc(-c2cnco2)cc1` (centres unmarked) [Compound 310, N-hydroxy-N′-methyl-2-(methyl {[4-(1,3-oxazol-5-yl)phenyl]carbonyl}amino)propanediamide], the IC50 was above 0.1 µM.

Consider `CNC(=O)C(C(=O)NO)N(C)C(=O)c1ccc(-c2ccccc2C)cc1` (centres unmarked) [Compound 18, N-hydroxy-N′-methyl-2-{methyl[(2′-methylbiphenyl-4-yl)carbonyl]amino}propanediamide], for which the IC50 is 0.01 to 0.1 µM.

As for `CNC(=O)C(C(=O)NO)N(C)C(=O)c1ccc(-c2ccccc2)cc1F` (centres unmarked) [Compound 27, 2-{[(3-fluorobiphenyl-4-yl)carbonyl](methyl)amino}-N-hydroxy-N′-methylpropanediamide], the IC50 was in the range of 0.01 to 0.1 µM.

Regarding `CNC(=O)C(C(=O)NO)N(C)C(=O)c1ccc(-c2ccc(OCCC(O)CO)cc2)cc1` (centres unmarked) [Compound 181, 2-[{[4′-(3,4-dihydroxybutoxy)biphenyl-4-yl]carbonyl}(methyl)amino]-N-hydroxy-N′-methylpropanediamide], the IC50 is below 0.01 µM.

Take `CNC(=O)C(C(=O)NO)N(C)C(=O)c1ccc(-c2cccc(OC)c2)cc1` (centres unmarked) [Compound 279, N-hydroxy-2-{[(3′-methoxybiphenyl-4-yl)carbonyl](methyl)amino}-N′-methylpropanediamide]: the IC50 was 0.01 to 0.1 µM.

As to `CNC(=O)C(C(=O)NO)N(C)C(=O)c1ccc(/C=C/c2ccccc2)cc1` (centres unmarked) [Compound 63, N-hydroxy-N′-methyl-2-(methyl {4-[(E)-2-phenylethenyl]benzoyl}amino)propanediamide], the IC50 fell in the range of 0.01 to 0.1 µM.

Turning to `CNC(=O)C(C(=O)NO)N(C)C(=O)c1ccc(C#C/C=C/c2ccc(OC)nc2)cc1` (centres unmarked) [Compound 478, N-hydroxy-2-[({4-[(3E)-4-(6-methoxypyridin-3-yl)but-3-en-1-yn-1-yl]phenyl}carbonyl)(methyl)amino]-N′-methylpropanediamide], the IC50 is below 0.01 µM.

With `CNC(=O)C(C(=O)NO)N(C)C(=O)c1ccc(C#Cc2ccc(N3CCN(C)CC3)cc2)cc1` (centres unmarked) [Compound 473, N-hydroxy-N′-methyl-2-{methyl[(4-{[4-(4-methylpiperazin-1-yl)phenyl]ethynyl}phenyl)carbonyl]amino}propanediamide], the IC50 fell in the range of 0.01 to 0.1 µM.

Take `CN(C(=O)c1ccc(-c2ccccc2)cc1)C(C(=O)NO)C(=O)NC1CC1` (centres unmarked) [Compound 175, 2-[(biphenyl-4-ylcarbonyl)(methyl)amino]-N-cyclopropyl-N′-hydroxypropanediamide]: the IC50 is above 0.1 µM.
